The values below come from PMC5441580, “GPR40 partial agonist MK-2305 lower fasting glucose in the Goto Kakizaki rat via suppression of endogenous glucose production” (PLoS ONE, 2017).

Experiment [1] concerns pancreatic islets of Langerhans from wild-type mice. In words: glucose stimulated insulin secretion (GSIS), isolated wild-type islets. The format is cell-based, mouse. To be noted: WT islets; for secreted insulin per islet: 10 uM compound, 60 min, individual wells. As for the experimental part:
Pancreatic islets of Langerhans were isolated from wild-type and GPR40−/− mice (littermates) by collagenase digestion and discontinuous Ficoll gradient separation. […] Insulin secretion was determined by a 1 hr static incubation in Krebs-Ringer bicarbonate (KRB) buffer in a 96-well format as previously described. Briefly, islets were first preincubated in KRB medium with 2 mmol/l glucose for 30 min and were then transferred to a 96-well plate (three islets/well) and incubated with 200 μl of the KRB medium with 2 or 15 mmol/l glucose in the presence or absence of testing compounds for 60 min. The buffer was removed from the wells at the end of the incubation and assayed for insulin levels using the Ultrasensitive Rat Insulin ELISA kit (ALPCO, Salem, NH). All insulin secretion data were normalized by total islet numbers (ex: three islets/well), so the unit is secreted insulin (ng/ml) per islet.

Experiment [2] has as its system GK rats. Description: OGTT with insulin co-measurement on Day 13 of chronic treatment, parallel set of animals. On the set-up: Change in plasma insulin from baseline during OGTT (delta insulin): unit not given here. To be noted: for Change in plasma insulin from baseline during OGTT (delta insulin): day 13, individual animals. The experiment is classed as in vivo, rat. As for the experimental part: On the day of the study, male GK rats were bled via tail snip, and blood glucose was measured via glucometer (OneTouch Ultra, Lifescan Inc., Milpitas, CA). Fed glucose was measured at 8 A.M. (lights on 7 A.M.– 7 P.M.) and used to select and sort animals into treatment groups (n = 8/ GK group, plus n = 6/WKY control group). Animals were then placed into clean cages, and food was removed. After a 5 hr fast, glucose was measured at time = -60 min, followed by administration of vehicle plus or minus compound via oral gavage (PO) at a dosing volume of 5 ml/kg. Dosages from 0.3–10 mg MK-2305 / kg body weight were tested. Both the GK and WKY control groups received vehicle (0.5% methylcellulose). Blood glucose was measured again (time = 0) immediately prior to a dextrose challenge of 1 g/kg at 10 ml/kg dose volume (Dextrose, Hospira Inc., Lake Forrest IL) and then again at 20, 40, 60, and 120 min after the glucose challenge. Insulin was co-measured to test the glucose-dependent secretory response to MK-2305 delivered acutely PO. To capture insulin secretion during the OGTT, blood was collected at t = -60, 0, 20, 40, 60 min post glucose challenge. […] Values of percent inhibition vs. vehicle for each treatment were generated from the AUC data. Maximally efficacious dose (MED) was defined as the minimum dosage generating a maximum inhibition of glucose excursion achieved with this compound in the OGTT assay.
In a parallel set of animals (n = 30) treated with standard diet or MK-2305 at 30 mg/kg diet, an OGTT with insulin co-measurement was performed on Day 13. On the day of OGTT, n = 10 vehicle animals and n = 10 MK-2305-treated animals were administered 0.5% methylcellulose PO at a dosing volume of 5 ml/kg. For an acute comparison, n = 10 vehicle animals were administered MK-2305 at 30 mg/kg PO. The procedure for an acute OGTT was identical to that described above.

The test system of experiment [3] is GK rats. Description: 13C-labeled OGTT, 13C metabolites in liver and skeletal muscle. The format is in vivo, rat. Conditions: for 13C Labeled Metabolite, Ala C3 / 13C Labeled Metabolite, G6P C1 / 13C Labeled Metabolite, Glyc C1 / 13C Labeled Metabolite, Lac C3: [1-13C] glucose, acute treatment, individual animals. As for the experimental part:
GK rat OGTT procedures were followed as above. Animals were treated PO at 5 ml/kg with MK-2305 at 10 mg/kg or vehicle at time = -60 min. At time = 0, animals were challenged PO at 10 ml/kg dose volume with [1-^13C] glucose prepared in distilled water at 1 g/kg (Sigma-Aldrich). Blood glucose was measured pre-treatment and at t = 0, 20, 40, 60, 120 minutes post challenge. Following the blood glucose measurement at time = 120 min, animals were anesthetized with Isoflurane (Isothesia, Henry Schein, Dublin, OH) and samples of liver and skeletal muscle were collected. Tissue samples were processed using a methanol/water based extraction procedure as follows. Frozen tissue was weighed and added to tubes containing 80% methanol at a ratio of 100 mg tissue per mL 80% methanol. The samples were homogenized at 4°C using a Polytron homogenizer equipped with a 12 mm stainless steel head. Samples were then centrifuged at 25,000 rcf for 10 min at 4°C, the supernatant collected, and the pellet extracted again using an equivalent volume of 80% methanol. The supernatants from both extractions were pooled and the methanol evaporated under nitrogen. The samples were then reconstituted in 180 μl 0.1M sodium phosphate in D2O (pH 7.4) for NMR analysis. ^13C NMR of tissue extracts was performed on a 600 MHz Bruker NMR spectrometer (David H. Murdock Research Institute) using the following parameters: 45° pulse, D1 = 0.2 sec, NS = 3200 averages, ^1H broadband decoupling (WALTZ-16), acquisition time ~45 min. […] These NMR signals were integrated and converted to absolute units (μmoles) using ^13C NMR spectra from standard solutions of each metabolite of known concentration acquired under identical conditions. Glycogen is a primary site of glucose disposal in both liver and muscle, however glycogen was not preserved in our tissue extraction protocol. To quantify tissue ^13C-glycogen, a separate piece of tissue from each sample was analyzed. Briefly, tissue samples were saponified in hot KOH, and this was followed by glycogen precipitation with NaSO4 and ethanol, and then degradation with amyloglucosidase. The resulting glycogen-derived glucose solution was analyzed for total glucose using a glucose oxidase / horseradish peroxidase assay kit and fluorescence-based product detection according to the manufacturers’ instructions (BioVision Glycogen Assay Kit, Milpitas, CA).

Where [4] appears, read: 10 mg/kg PO, [1-13C] glucose OGTT, GK rats.

Values joined by “and” are separate entries in the source; they are usually repeats but may differ in a detail not shown here. Equal entries are not always repeated.

As for `O=C1NC(=O)C(C2CCOc3cc(Oc4ccc(C(F)(F)F)cc4Cl)ccc32)S1` (stereo not shown) [MK-2305], the “secreted insulin per islet” value in experiment [1] (2mM glucose) was 0.6472 ng/ml per islet and 0.4249 ng/ml per islet and 0.7026 ng/ml per islet and 0.678 ng/ml per islet and 0.4061 ng/ml per islet and 0.594 ng/ml per islet and 0.652 ng/ml per islet and 0.541 ng/ml per islet; in experiment [1] (15 mM Glucose), 5.982 ng/ml per islet and 3.69 ng/ml per islet and 4.728 ng/ml per islet and 4.578 ng/ml per islet and 5.448 ng/ml per islet and 3.948 ng/ml per islet and 4.236 ng/ml per islet and 5.162 ng/ml per islet. Further, the “effect on GSIS” value in experiment [1] (high (15 mM) but not basal (2 mM) glucose) is reported as “acutely stimulate GSIS”. Moreover, the “Change in plasma insulin from baseline during OGTT (delta insulin)” value was 0.309 and 1.604 and 0.324 and 0.21 and 0.156 and 0.86 and 1.776 and 0.805 and -0.061 and 0.012 in the experiment with GK rats [2] (Acute, 30 mpk, Time 0, 30 mg/kg); 1.499 and 1.114 and 1.989 and 2.273 and 1.824 and -0.14 and 3.286 and 1.17 and 0.172 and 0.765 in the experiment on GK rats [2] (Acute, 30 mpk, Time 20, 30 mg/kg); 0.099 and 0.177 and 0.004 and -0.004 and -0.413 and -0.187 and -0.251 and 0.259 and -0.133 and 0.416 with GK rats [2] (Acute, 30 mpk, Time 60, 30 mg/kg); 0 with GK rats [2] (Acute, 30 mpk, Time -60); 0.06 and -0.177 and -0.627 and -0.109 and -0.564 and -0.273 and 0.845 and 0.077 and 0.103 and 0.198 with GK rats [2] (Chronic, 30 mkd, Time 0); 0.473 and 0.233 and 0.417 and 0.389 and 0.164 and 0.072 and 0 and 0.34 and 0.387 and 0.196 in the experiment with GK rats [2] (Chronic, 30 mkd, Time 20). In addition, the “Change in plasma insulin from baseline during OGTT (delta insulin)” value in the experiment with GK rats [2] (Chronic, 30 mkd, Time 60) is -0.534 and -0.189 and -0.192 and 0.192 and -0.625 and -0.523 and -0.322 and -0.003 and -0.166 and -0.044; in the experiment on GK rats [2] (Chronic, 30 mkd, Time -60), 0. Also, in the experiment on GK rats [2] (OGTT Day 13, 30 mg/kg acutely PO and chronically in diet, vs. vehicle), the “effect on plasma insulin after a glucose challenge” value is reported as “increased plasma insulin”. The “effect on disposal of 13C-glucose into 13C-G6P, 13C-glycogen, 13C-lactate and 13C-alanine in liver” value with GK rats [3] (setting [4]) is “significant decreases”. Besides, the “effect on disposal of 13C-glucose into metabolites in muscle” value with GK rats [3] (setting [4]) is recorded as “no significant effects”. The “13C Labeled Metabolite, Ala C3” value in the experiment on GK rats [3] was 0.07795 umoles/g liver and 0.1076 umoles/g liver and 0.03915 umoles/g liver and 0.01144 umoles/g liver and 0.01402 umoles/g liver and 0.02433 umoles/g liver and 0.05001 umoles/g liver and 0.007673 umoles/g liver; in the experiment with GK rats [3] (skeletal muscle) it was 0.1279 umoles/g muscle and 0.07989 umoles/g muscle and 0.1157 umoles/g muscle and 0.07123 umoles/g muscle. Further, the “13C Labeled Metabolite, G6P C1” value in the experiment with GK rats [3] is 0.02684 umoles/g liver and 0.01164 umoles/g liver and 0.007287 umoles/g liver and 0.01533 umoles/g liver and 0.00988 umoles/g liver and 0.01421 umoles/g liver and 0.01349 umoles/g liver and 0.0107 umoles/g liver; in the experiment on GK rats [3] (skeletal muscle), 0.05019 umoles/g muscle and 0.01903 umoles/g muscle and 0.04767 umoles/g muscle and 0.01045 umoles/g muscle and 0.004493 umoles/g muscle and 0.01768 umoles/g muscle and 0.003514 umoles/g muscle. Also, the “13C Labeled Metabolite, Glyc C1” value with GK rats [3] was 1.292 umoles/g liver and 0.3555 umoles/g liver and 0.1582 umoles/g liver and 0.4672 umoles/g liver and 0.1107 umoles/g liver and 0.1399 umoles/g liver and 0.3766 umoles/g liver and 0.2884 umoles/g liver; with GK rats [3] (skeletal muscle) it was 0.2857 umoles/g muscle and 0.133 umoles/g muscle and 1.635 umoles/g muscle and 0.328 umoles/g muscle and 0.06707 umoles/g muscle and 0.1828 umoles/g muscle and 0.4005 umoles/g muscle. Besides, the “13C Labeled Metabolite, Lac C3” value with GK rats [3] was 0.03897 umoles/g liver and 0.06288 umoles/g liver and 0.02257 umoles/g liver and 0.01974 umoles/g liver and 0.01299 umoles/g liver and 0.02143 umoles/g liver and 0.0406 umoles/g liver and 0.007673 umoles/g liver; with GK rats [3] (skeletal muscle), 0.2756 umoles/g muscle and 0.03448 umoles/g muscle and 0.06757 umoles/g muscle and 0.07739 umoles/g muscle and 0.08426 umoles/g muscle.
